# Results as given in ChEMBL document CHEMBL5215006, “Antitumor Activity of Piceamycin by Upregulation of N-Myc Downstream-Regulated Gene 1 in Human Colorectal Cancer Cells” (J Nat Prod, 2022).
# Activity calls are given as the source filed them. The rule behind the calls is not given here.
# What was measured:
# HCT-116 [1] = experiment: Antimigratory activity against highly liver metastatic human HCT-116 cells assessed as downregulation of Snail protein expression at 0.075 to 0.3 uM incubated for 24 hrs by immunoblotting assay; assay type: functional, cell-based; conditions: dose 0.075-0.3 µM
# HCT-116 [2] = experiment: Antimigratory activity against highly liver metastatic human HCT-116 cells assessed as downregulation of Snail gene expression at 0.075 to 0.3 uM incubated for 24 hrs by RT-PCR method; assay type: functional, cell-based; conditions: dose 0.075-0.3 µM
# HCT-116 [3] = experiment: Cell cycle arrest in human HCT-116 cells assessed as accumulation at G0/G1 phase at 0.3 uM incubated for 24 hrs by RNaseA/propidium iodide staining based flow cytometry (reference value: 48.44 %); assay type: functional
# HCT-116 [4] = experiment: Induction of apoptosis in human HCT-116 cells assessed as upregulation of cleaved caspase-9 expression at 0.3 uM measured after 48 hrs by immunoblotting assay; assay type: functional, cell-based
# SW480 [5] = experiment: Induction of apoptosis in human SW480 cells assessed as upregulation of cleaved PARP expression at 1.4 uM measured at 12 to 48 hrs by immunoblotting assay; assay type: functional, cell-based; conditions: time 12-48 hrs, TDE = time-dependent effect
# SW480 [6] = experiment: Induction of apoptosis in human SW480 cells assessed as necrotic cells at 0.7 uM incubated for 48 hrs by Annexin V-FITC/PI staining based flow cytometry analysis (Rvb= 0.07%); assay type: functional
# HCT-116 [7] = experiment: Anti-migratory activity against human HCT-116 cells assessed as downregulation of Snail gene expression at 0.075 to 0.3 uM incubated for 24 hrs by RT-PCR assay; assay type: functional, cell-based; conditions: dose 0.075-0.3 µM
# SW480 [8] = experiment: Induction of apoptosis in human SW480 cells assessed as upregulation of cleaved caspase-8 expression at 1.4 uM measured at 12 to 48 hrs by immunoblotting assay; assay type: functional, cell-based; conditions: time 12-48 hrs, TDE = time-dependent effect
# SW480 [9] = experiment: Induction of apoptosis in human SW480 cells assessed as viable cells at 0.35 uM incubated for 48 hrs by Annexin V-FITC/PI staining based flow cytometry analysis (Rvb= 92.6%); assay type: functional; conditions: read-out: Activity
# SW480 [10] = experiment: Induction of apoptosis in human SW480 cells assessed as downregulation of survivin expression at 1.4 uM measured at 12 to 48 hrs by immunoblotting assay; assay type: functional, cell-based; conditions: time 12-48 hrs, TDE = time-dependent effect
smiles,measurement,setting,value
C[C@@H]1\C=C/C=C/C=C\C=C\C=C\C(=O)C2=C(O)C(=O)C[C@@]2(C)/C=C/C=C\C=C/C(=O)NC1,Activity,HCT-116 [1],Active
same,Activity,HCT-116 [2],Active
same,Activity,HCT-116 [3],62.85%
same,Activity,HCT-116 [4],Active
same,Activity,SW480 [5],Tde
same,Activity,SW480 [6],0.08%
same,Activity,HCT-116 [7],Active
same,Activity,SW480 [8],Tde
same,viability at 0.35 µM,SW480 [9],93%
same,Activity,SW480 [10],Tde
